# Assay results published in patent US20100266692A1, “NANOPARTICLES COMPRISING A NON-IONIZABLE POLYMER AND AN ANIONIC CELLULOSIC POLYMER” (priority 2007, published 2010).
# Key:
# Log P of drug = format: physicochemical; details: octanol/water
# From the text: The first property of hydrophobic drugs is that they are extremely hydrophobic. Log P, defined as the base 10 logarithm of the ratio of the drug solubility in octanol to the drug solubility in water, is a widely accepted measure of hydrophobicity. By “extremely hydrophobic” is meant that the Log P value of the drug is at least 4.0, preferably at least 4.5, and most preferably at least 5.0. Log P may be measured experimentally or calculated using methods known in the art. When using a calculated value for Log P, the highest value calculated using any generally accepted method for calculating Log P is used. Calculated Log P values are often referred to by the calculation method, such as Clog P, Alog P, and Mlog P. The Log P may also be estimated using fragmentation methods, such as Crippen's fragmentation method (27 J. Chem. Inf. Comput. Sci. 21 (1987)); Viswanadhan's fragmentation method (29 J. Chem. Inf. Comput. Sci. 163 (1989)); or Broto's fragmentation method (19 Eur. J. Med. Chem.-Chim. Theor. 71 (1984). Preferably the Log P value is calculated by using the average value estimated using Crippen's, Viswanadhan's, and Broto's fragmentation methods.
# [1] = Solubility of drug in water; format: physicochemical
# [2] = Solubility in model fasted duodenal (MFD) solution; format: physicochemical; details: fassgf or other biorelevant, PBS containing 7.3 mM sodium taurocholic acid and 1.4 mM 1-palmitoyl-2-oleyl-sn-glycero-3-phosphocholine
# [3] = Protocol: The polymer is a poorly aqueous soluble non-ionizable polymer. […] An appropriate PBS solution is an aqueous solution consisting of 20 mM sodium phosphate (Na2HPO4), 47 mM potassium phosphate (KH2PO4), 87 mM NaCl, and 0.2 mM KCl, adjusted to pH 6.5 with NaOH. A test to determine whether the polymer is poorly aqueous soluble may be performed as follows. The polymer is initially present in bulk powder form with average particle sizes of greater than about 1 micron. The polymer alone is administered at a concentration of 0.2 mg/mL to the PBS solution and stirred for approximately 1 hour at room temperature. Next, a nylon 0.45 μm filter is weighed, and the polymer solution is filtered. The filter is dried overnight at 40° C., and weighed the following morning. The amount of polymer dissolved is calculated from the amount of polymer added to the PBS solution minus the amount of polymer remaining on the filter (mg). […] First, 0.2 mg/mL of the polymer was added to a PBS solution consisting of 20 mM Na2HPO4, 47 mM KH2PO4, 87 mM NaCl, and 0.2 mM KCl, adjusted to pH 6.5 with NaOH. The polymer was stirred in the PBS solution for approximately 1 hour at room temperature. […] The amount of soluble polymer was calculated from the amount of polymer added to form the polymer solution minus the amount of polymer remaining on the filter.
Compound,logP (Log P of drug),solubility [1],solubility [2],Amount Soluble at pH 6.5 [3]
"Cc1onc(-c2ccccc2)c1-c1ccc(S(N)(=O)=O)cc1 [Drug 1, 4-(5-methyl-3-phenyl-4-isoxazolyl) benzenesulfonamide, reference compound]",~3,~10 µg/mL,–,–
"CC[C@@H]1C[C@H](N(Cc2cc(C(F)(F)F)cc(C(F)(F)F)c2)C(C)=O)c2cc(C(F)(F)F)ccc2N1C(=O)OC(C)C [Drug 2, [2R,4S]-4-[acetyl-(3,5-bis-trifluoromethyl-benzyl)-amino]-2-ethyl-6-trifluoromethyl-3,4-dihydro-2H-quinoline-1-carboxylic acid isopropyl ester]",6.7,< 1 µg/mL,–,–
"Cc1ccc(-c2cc(C(F)(F)F)nn2-c2ccc(S(N)(=O)=O)cc2)cc1 [Drug 3, 4-[5-(4-methylphenyl)-3-(trifluoromethyl)-1H-pyrazol-1-yl]benzenesulfonamide]",–,–,~40 µg/mL,–
cellulose acetate,–,–,–,0.03 mg/mL
ethylcellulose,–,–,–,<0.001 mg/mL
